The source of these data is patent US11525165B2, “Method of selection of an IRE1-inhibitor therapy for patient suffering from cancer” (INSERM (INSTITUT NATIONAL DE LA SANTÉ ET DE LA RECHERCHE …, priority 2017, dated 2022).

The test system of the assay is U87 cells. As to the kind of experiment: miR-17 level under tunicamycin-induced ER stress. The assay is classed as cell-based. To be noted: data not shown. On the procedure: U87MG (ATCC) and U251MG (Sigma, St Louis, Mo., USA) cells were authenticated as recommended by AACR (http://aacrjournals.org/content/cell-line-authentication-information) and tested for the absence of mycoplasma using MycoAlert® (Lonza, Basel, Switzerland) or MycoFluor (Invitrogen, Carlsbad, Calif., USA). U87 cells (ATCC) were grown in DMEM glutamax (Invitrogen, Carlsbad, Calif., USA) supplemented with 10% FBS. U87 were stably transfected at MOI=0.3 with pCDH-CMV-MCS-EF1-Puro-copGFP (System biosciences) empty vector (EV), pCDH-CMV-MCS-EF1-Puro-copGFP containing IRE1alpha wild-type sequence (WT) or mutated sequence (P336L, A414T, S769F or Q780*). U87 cells were selected using 2 μg/mL puromycin and polyclonal populations were tested for GFP expression. Transfections of GBM primary cell lines with IRE1 WT and Q780* were performed using Lipofectamine LTX (ThermoFisher Scientific), according to the manufacturer's instructions. For microarray experiments, tunicamycin (purchased from Calbiochem (Merck KGaA, Darmstadt, Germany)) was used at […] for 16 hrs. Actinomycin D were purchased from Sigma-Aldrich (St Louis, Mo., USA) and used as indicated. […]
Total RNA was prepared using the Trizol reagent (Invitrogen, Carlsbad, Calif., USA). Semi-quantitative analyses were carried out as previously described. […]

For tunicamycin, the miR-17 degradation entry was “led to further miR-17 degradation”.
